# Test results reported in PMC8286840, “Identifying SARS-CoV-2 antiviral compounds by screening for small molecule inhibitors of Nsp3 papain-like protease” (Biochemical Journal, 2021).
# Structures can show the parent of a compound that is named as a salt. Where two headings read alike, the source gives them in different places.
# Experiments:
# [1] = target: T1, SARS-CoV-2 PLpro (nsp3 1564–1878) (Severe acute respiratory syndrome coronavirus 2, UniProt P0DTD1); experiment: biochemical; design: FRET-quenched peptide (Pro3) cleavage by PLpro, 10 min pre-incubation, slope over 20 min, normalised to no-compound control; conditions: read-out: % of control remaining
# [2] = target: T1, SARS-CoV-2 PLpro (nsp3 1564–1878); experiment: biochemical; design: FRET-quenched peptide (Pro3) cleavage by PLpro, 10 min pre-incubation, slope over 20 min, normalised to no-compound control; conditions: read-out: % of control remaining; remark: listed apart in the source
compound,measurement,setting,value
"FC(F)(F)c1cc(CO[C@H]2CCCN[C@H]2c2ccccc2)cc(C(F)(F)F)c1 [L-733,060 hydrochloride]",remaining activity at 1.25 µM,"[1]; Well no.=918, low concentration screen",99.8%
same,remaining activity at 3.75 µM,"[2]; Well no.=918, high concentration screen",103%
"Clc1ccc(N2CCN(Cc3c[nH]c4ncccc34)CC2)cc1 [L-745,870 hydrochloride]",remaining activity at 1.25 µM,"[1]; Well no.=1108, low concentration screen",92.3%
same,remaining activity at 3.75 µM,"[2]; Well no.=1108, high concentration screen",95.9%
"Ic1ccc(N2CCN(Cc3c[nH]c4ncccc34)CC2)cc1 [L-750,667 trihydrochloride]",remaining activity at 1.25 µM,"[1]; Well no.=774, low concentration screen",102%
same,remaining activity at 3.75 µM,"[2]; Well no.=774, high concentration screen",106%
COc1ccc(Br)cc1S(=O)(=O)NC(=O)/C=C/c1ccccc1Cc1ccc2ccccc2c1 [L-798106],remaining activity at 1.25 µM,"[1]; Well no.=5661, low concentration screen",91.7%
same,remaining activity at 3.75 µM,"[2]; Well no.=5661, high concentration screen",95%
C[C@H](N)C(=O)O [L-Alanine],remaining activity at 1.25 µM,"[1]; Well no.=7749, low concentration screen",95.2%
same,remaining activity at 3.75 µM,"[2]; Well no.=7749, high concentration screen",97.6%
OC[C@H](O)C(O)[C@@H](O)CO [L-Arabinitol],remaining activity at 1.25 µM,"[1]; Well no.=6789, low concentration screen",93.2%
same,remaining activity at 3.75 µM,"[2]; Well no.=6789, high concentration screen",93.7%
N=C(N)NCCC[C@H](N)C(=O)O [L-Arginine HCl],remaining activity at 1.25 µM,"[1]; Well no.=4987, low concentration screen",100%
same,remaining activity at 3.75 µM,"[2]; Well no.=4987, high concentration screen",100%
N=C(N)NCCC[C@H](N)C(=O)O [L-Arginine],remaining activity at 1.25 µM,"[1]; Well no.=351, low concentration screen",97.9%
same,remaining activity at 1.25 µM,"[1]; Well no.=7205, low concentration screen",102%
same,remaining activity at 3.75 µM,"[2]; Well no.=351, high concentration screen",98.7%
same,remaining activity at 3.75 µM,"[2]; Well no.=7205, high concentration screen",99.2%
NC(=O)C[C@H](N)C(=O)O [L-Asparagine],remaining activity at 1.25 µM,"[1]; Well no.=7741, low concentration screen",106%
same,remaining activity at 3.75 µM,"[2]; Well no.=7741, high concentration screen",108%
N[C@@H](CC(=O)O)C(=O)O [L-Aspartic acid],remaining activity at 1.25 µM,"[1]; Well no.=248, low concentration screen",96.2%
same,remaining activity at 3.75 µM,"[2]; Well no.=248, high concentration screen",97.3%
same,remaining activity at 3.75 µM,"[2]; Well no.=7683, high concentration screen",106%
CCCCS(=N)(=O)CCC(N)C(=O)O [L-Buthionine-sulfoximine],remaining activity at 1.25 µM,"[1]; Well no.=315, low concentration screen",97.6%
same,remaining activity at 3.75 µM,"[2]; Well no.=315, high concentration screen",97.7%
NC(N)=NOCC[C@H](N)C(=O)O [L-Canavanine sulfate],remaining activity at 1.25 µM,"[1]; Well no.=382, low concentration screen",88.7%
same,remaining activity at 3.75 µM,"[2]; Well no.=382, high concentration screen",96.4%
NCCC(=O)N[C@@H](Cc1cnc[nH]1)C(=O)O [L-Carnosine],remaining activity at 1.25 µM,"[1]; Well no.=7017, low concentration screen",112%
same,remaining activity at 3.75 µM,"[2]; Well no.=7017, high concentration screen",111%
NC(=O)NCCC[C@H](N)C(=O)O [L-Citrulline],remaining activity at 1.25 µM,"[1]; Well no.=7159, low concentration screen",108%
same,remaining activity at 3.75 µM,"[2]; Well no.=7159, high concentration screen",102%
N[C@H]1CONC1=O [L-Cycloserine],remaining activity at 1.25 µM,"[1]; Well no.=187, low concentration screen",104%
same,remaining activity at 1.25 µM,"[1]; Well no.=3185, low concentration screen",103%
same,remaining activity at 3.75 µM,"[2]; Well no.=187, high concentration screen",101%
same,remaining activity at 3.75 µM,"[2]; Well no.=3185, high concentration screen",102%
N[C@@H](CS)C(=O)O [L-Cysteine],remaining activity at 1.25 µM,"[1]; Well no.=7783, low concentration screen",107%
same,remaining activity at 3.75 µM,"[2]; Well no.=7783, high concentration screen",109%
N[C@@H](CS(=O)O)C(=O)O [L-Cysteinesulfinic Acid],remaining activity at 1.25 µM,"[1]; Well no.=128, low concentration screen",93.4%
same,remaining activity at 3.75 µM,"[2]; Well no.=128, high concentration screen",96.5%
N[C@@H](CSSC[C@H](N)C(=O)O)C(=O)O [L-Cystine],remaining activity at 1.25 µM,"[1]; Well no.=6393, low concentration screen",104%
same,remaining activity at 3.75 µM,"[2]; Well no.=6393, high concentration screen",106%
N[C@@H](Cc1ccc(O)c(O)c1)C(=O)O [L-DOPA],remaining activity at 1.25 µM,"[1]; Well no.=6861, low concentration screen",91.2%
same,remaining activity at 3.75 µM,"[2]; Well no.=6861, high concentration screen",92.3%
CNCC(O)c1ccc(O)c(O)c1 [L-Epinephrine (Bitartrate)],remaining activity at 1.25 µM,"[1]; Well no.=6952, low concentration screen",98%
same,remaining activity at 3.75 µM,"[2]; Well no.=6952, high concentration screen",94.1%
N[C@@H](CCC(=O)O)C(=O)O [L-Glutamic acid hydrochloride],remaining activity at 1.25 µM,"[1]; Well no.=619, low concentration screen",102%
same,remaining activity at 3.75 µM,"[2]; Well no.=619, high concentration screen",97.5%
N[C@@H](CCC(=O)O)C(=O)O [L-Glutamic acid monosodium salt],remaining activity at 1.25 µM,"[1]; Well no.=8573, low concentration screen",103%
same,remaining activity at 3.75 µM,"[2]; Well no.=8573, high concentration screen",106%
NC(=O)CC[C@H](N)C(=O)O [L-Glutamine],remaining activity at 1.25 µM,"[1]; Well no.=715, low concentration screen",96.1%
same,remaining activity at 1.25 µM,"[1]; Well no.=6899, low concentration screen",93.9%
same,remaining activity at 1.25 µM,"[1]; Well no.=7743, low concentration screen",102%
same,remaining activity at 3.75 µM,"[2]; Well no.=715, high concentration screen",93.2%
same,remaining activity at 3.75 µM,"[2]; Well no.=6899, high concentration screen",92.3%
same,remaining activity at 3.75 µM,"[2]; Well no.=7743, high concentration screen",104%
"O=C1O[C@H]([C@@H](O)CO)[C@H](O)[C@@H]1O [L-Gulono-1,4-lactone]",remaining activity at 1.25 µM,"[1]; Well no.=6771, low concentration screen",102%
same,remaining activity at 3.75 µM,"[2]; Well no.=6771, high concentration screen",104%
N[C@@H](Cc1c[nH]cn1)C(=O)O [L-Histidine hydrochloride],remaining activity at 1.25 µM,"[1]; Well no.=422, low concentration screen",92.7%
same,remaining activity at 3.75 µM,"[2]; Well no.=422, high concentration screen",94.7%
NC(=O)NCCCC[C@H](N)C(=O)O [L-Homocitrulline],remaining activity at 1.25 µM,[1],101%
same,remaining activity at 3.75 µM,[2],89.3%
N[C@@H](CCO)C(=O)O [L-Homoserine],remaining activity at 1.25 µM,"[1]; Well no.=6821, low concentration screen",100%
same,remaining activity at 3.75 µM,"[2]; Well no.=6821, high concentration screen",101%
O=C(O)[C@@H]1C[C@@H](O)CN1 [L-Hydroxyproline],remaining activity at 1.25 µM,"[1]; Well no.=6735, low concentration screen",101%
same,remaining activity at 1.25 µM,"[1]; Well no.=8744, low concentration screen",94.2%
same,remaining activity at 3.75 µM,"[2]; Well no.=6735, high concentration screen",102%
same,remaining activity at 3.75 µM,"[2]; Well no.=8744, high concentration screen",91.4%
CN1[C@@H]2CC[C@H]1C[C@@H](OC(=O)[C@H](CO)c1ccccc1)C2 [L-Hyoscyamine],remaining activity at 1.25 µM,"[1]; Well no.=424, low concentration screen",99.2%
same,remaining activity at 1.25 µM,"[1]; Well no.=6801, low concentration screen",103%
same,remaining activity at 3.75 µM,"[2]; Well no.=424, high concentration screen",96.8%
same,remaining activity at 3.75 µM,"[2]; Well no.=6801, high concentration screen",99.4%
Nc1ccccc1C(=O)C[C@H](N)C(=O)O [L-Kynurenine],remaining activity at 1.25 µM,"[1]; Well no.=7221, low concentration screen",95.5%
same,remaining activity at 3.75 µM,"[2]; Well no.=7221, high concentration screen",92%
C[C@H](O)C(=O)O [L-Lactic acid],remaining activity at 1.25 µM,"[1]; Well no.=7395, low concentration screen",104%
same,remaining activity at 3.75 µM,"[2]; Well no.=7395, high concentration screen",106%
CS(=N)(=O)CC[C@H](N)C(=O)O (stereo partly drawn) [L-Methionine sulfoximine],remaining activity at 1.25 µM,"[1]; Well no.=1120, low concentration screen",96.3%
same,remaining activity at 3.75 µM,"[2]; Well no.=1120, high concentration screen",99.8%
N[C@@H](Cn1ccc(=O)c(O)c1)C(=O)O [L-Mimosine],remaining activity at 1.25 µM,"[1]; Well no.=3819, low concentration screen",92.9%
same,remaining activity at 3.75 µM,"[2]; Well no.=3819, high concentration screen",94.6%
CC(N)=NCCC[C@H](N)C(=O)O [L-N5-(1-Iminoethyl)ornithine hydrochloride],remaining activity at 1.25 µM,"[1]; Well no.=967, low concentration screen",101%
same,remaining activity at 3.75 µM,"[2]; Well no.=967, high concentration screen",101%
CCCCCCCCCCCCCCCC(=O)N[C@@H](COP(=O)(O)O)C(=O)O [L-NASPA],remaining activity at 1.25 µM,"[1]; Well no.=4499, low concentration screen",91.6%
same,remaining activity at 3.75 µM,"[2]; Well no.=4499, high concentration screen",94.8%
CCCC[C@H](N)C(=O)O [L-Norleucine],remaining activity at 1.25 µM,"[1]; Well no.=7733, low concentration screen",103%
same,remaining activity at 3.75 µM,"[2]; Well no.=7733, high concentration screen",106%
